Experiment in all cases: inhibition of tumour cell growth, NCI panel, 48 h
Assay [1] concerns HT29 colon.
For assay [2], the system named is SNB-19 CNS.
In assay [3] the test system is M14 melanoma.
Assay [4] relates to SR leukemia.
Assay [5] concerns MCF7 breast.
Assay [6] deals with DU-145 prostate.
Assay [7] deals with OVCAR-4 ovarian.
Assay [8] has as its system RPMI-8226 leukemia.
The subject of assay [9] is IGROV1 ovarian.
Assay [10] relates to TK-10 renal.

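Tested at 5 concentrations; 48 h exposure; 96-well plates; endpoints linearly interpolated, else capped at highest concentration. GI50 is the concentration that inhibits growth by half. TGI is the concentration that stops growth completely.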 A value given as a limit tells only on which side of the number the result lay.

In the case of `Cn1cnc([N+](=O)[O-])c1Sc1nc(N)nc2c1ncn2C1CC(O)C(CO)O1` (stereo not given), the TGI in assay [1] was more than 100 µM; in assay [2], more than 100 µM; in assay [3], more than 58.6 µM; in [4] it was 18.7 µM; in assay [5], more than 54.2 µM; in [6], more than 50.8 µM. Further, the TGI in assay [7] is more than 83.1 µM; in [8] it was 36.2 µM; in [9] it was more than 100 µM; in assay [10], more than 100 µM.

Regarding `[N-]=[N+]=NCCCCCC(=O)OC(C(=O)c1ccccc1)c1cccc(OCC(=O)NCCOCCOCCNC(=O)CCCC[C@@H]2SC[C@@H]3NC(=O)N[C@@H]32)c1` (stereo not given in full), the GI50 in [1] is more than 100 µM; in assay [2], more than 100 µM; in assay [3] it was more than 100 µM; in [4] it was 22.6 µM; in assay [5], 51.3 µM; in assay [6] it was more than 100 µM. Besides, the GI50 in assay [7] was more than 100 µM; in [8], 29.3 µM; in assay [9], more than 100 µM; in assay [10], more than 100 µM. For the same compound, the TGI in [1] was more than 100 µM; in assay [2], more than 100 µM; in assay [3], more than 100 µM; in assay [4], 60 µM; in assay [5], more than 100 µM; in assay [6], more than 100 µM. In addition, the TGI in [7], in assay [8], in assay [9] and in assay [10] was more than 100 µM throughout.

Regarding `O=C(Cc1ccc(F)c(F)c1)Nc1cc(C2(C(F)(F)F)CC2)nn1Cc1ccccc1`, the GI50 was 3.74 µM in [1]; 4.54 µM in [2]; 5.66 µM in assay [3]; 3.89 µM in [4]; 3.9 µM in assay [5]; 5.34 µM in assay [6]. The GI50 in [7] was 3.34 µM; in assay [8], 2.82 µM; in assay [9], 4.47 µM; in assay [10], 4.5 µM. For the same compound, the TGI in assay [1], in [2], in assay [3], in assay [4], in [5] and in [6] was more than 15 µM throughout. For the same compound, the TGI was more than 15 µM in assay [7], 8.67 µM in [8], more than 15 µM in [9] and more than 15 µM in assay [10].

For `N=c1ccn(O)cc1/C=C1/C(=O)Nc2ccccc21`, the GI50 in [1], in assay [2], in [3], in [4], in [5] and in [6] was more than 100 µM each time. Besides, the GI50 in assay [7], in assay [8], in assay [9] and in [10] was more than 100 µM throughout. Also, the TGI in assay [1], in assay [2], in [3], in [4], in assay [5] and in assay [6] was more than 100 µM throughout. Further, the TGI in [7], in assay [8], in assay [9] and in assay [10] was more than 100 µM throughout.

Turning to `Nc1nc2c(ncn2C2C=CC(CO)C2)c(=O)[nH]1` (stereo not given), the TGI in assay [1], in assay [2], in [3], in [4], in assay [5] and in [6] was more than 100 µM in each case. Also, the TGI in assay [7], in assay [8], in assay [9] and in assay [10] was more than 100 µM throughout.

In the case of `NCC1OC(n2cnc3c(N)ncnc32)CC1O` (stereo not given), the TGI in assay [1], in assay [2], in assay [3], in [4], in assay [5] and in [6] was more than 100 µM each time. Moreover, the TGI in assay [7], in assay [8], in assay [9] and in [10] was more than 100 µM in each case.

Take `COc1cccc(NC(=O)c2sc3nc(C)c(C(O)c4ccccc4)cc3c2N)c1` (stereo not given): the GI50 in assay [1] is 0.3 µM; in [2] it was 0.467 µM; in assay [3] it was 0.199 µM; in [4], 0.0503 µM; in [5], 0.0698 µM; in assay [6], 0.382 µM. Also, the GI50 in assay [7] is 0.811 µM; in [8], 0.357 µM; in assay [9] it was 0.441 µM; in assay [10], 2.03 µM. Moreover, the TGI in assay [1] was 14 µM; in assay [2], 74.6 µM; in assay [3] it was 17.4 µM; in assay [4], 22.1 µM; in assay [5] it was 13.9 µM; in [6], 19.6 µM. In addition, the TGI in assay [7] came to 32.7 µM; in assay [8], 12.3 µM; in assay [9], 16.8 µM; in [10], 65.1 µM.

Regarding `Cc1cc(N2CCOCC2)nc(N[C@@H]2CCC[C@H](Nc3ccnc4cc(Cl)ccc34)C2)n1`, the GI50 in [1] was 2.13 µM; in assay [2], 3.35 µM; in assay [3] it was 2 µM; in assay [4], 1.05 µM; in assay [5], 1.76 µM; in assay [6], 3.82 µM. Moreover, the GI50 in [7] was 2.8 µM; in [8], 2.09 µM; in assay [9] it was 2.23 µM; in [10] it was 2.15 µM. Moreover, the TGI in [1] came out at 5.24 µM; in assay [2], 12.2 µM; in assay [3], 3.7 µM; in [4], 3.83 µM; in assay [5], 4.15 µM; in [6] it was 14.7 µM. Further, the TGI in assay [7] amounted to 10.8 µM; in [8] it was 5.25 µM; in assay [9], 6.6 µM; in assay [10], 4.09 µM.

(Values after PubChem BioAssay (NCI).)
